Some test systems named below: Bacillus subtilis 168; Escherichia coli B; Pseudomonas aeruginosa; Staphylococcus aureus; Escherichia coli JW0013.
Assay in all cases: ≥ marks a high value that may be exact or a test limit, other limits are often not marked, values filed in µg/mL are converted to µM
In experiment [1] the test system is Escherichia coli KCTC 1682.
In experiment [2] the test system is Pseudomonas aeruginosa KCTC 1637.
The subject of experiment [3] is Salmonella typhimurium KCTC 1926.
For experiment [4], the system named is Staphylococcus aureus KCTC 1621.
Experiment [5] concerns Staphylococcus epidermidis KCTC 1917.

Values after ≈ are worked out from the molar mass of the structure shown.

Consider `C[C@H](NC(=O)[C@H](Cc1c[nH]c2ccccc12)NC(=O)[C@H](CCCCN)NC(=O)[C@H](CCCN=C(N)N)NC(=O)CNC(=O)[C@H](Cc1c[nH]c2ccccc12)NC(=O)[C@H](CCCN=C(N)N)NC(=O)[C@H](CCCN=C(N)N)NC(=O)[C@H](Cc1c[nH]c2ccccc12)NC(=O)CNC(=O)[C@@H](N)CCCN=C(N)N)C(=O)N[C@@H](Cc1cnc[nH]1)C(=O)NCC(=O)N[C@@H](Cc1c[nH]c2ccccc12)C(=O)N[C@@H](CCCCN)C(=O)N[C@@H](CCCCN)C(=O)N[C@@H](Cc1ccc(O)cc1)C(=O)NCC(N)=O` [RGWRRWGRKWAHGWKKYG], for which the MIC (as a rule, the lowest concentration found to suppress growth) in experiment [1] was 4 µM (≈ 9.48 µg/mL); in experiment [2] it was 8 µM (≈ 19 µg/mL); in experiment [3] it was 2 µM (≈ 4.74 µg/mL); in [4] it was 4 µM (≈ 9.48 µg/mL); in [5], 2 µM (≈ 4.74 µg/mL).

With `CC[C@H](C)[C@H](NC(=O)[C@H](Cc1cnc[nH]1)NC(=O)[C@H](CCCCN)NC(=O)[C@H](CC(C)C)NC(=O)[C@H](CC(C)C)NC(=O)[C@H](CO)NC(=O)[C@H](CCSC)NC(=O)[C@H](Cc1ccccc1)NC(=O)[C@H](CCCCN)NC(=O)CN)C(=O)N[C@@H](CC(C)C)C(=O)N[C@@H](CCCCN)C(N)=O` [GKFMSLLKHILK], the minimum inhibitory concentration (MIC) against Bacillus subtilis 168 is 1.5 µM (≈ 2.12 µg/mL); in the experiment on Escherichia coli B, 5.8 µM (≈ 8.2 µg/mL); with Pseudomonas aeruginosa it was 30 µM (≈ 42.4 µg/mL); with Staphylococcus aureus it was 43.3 µM (≈ 61.2 µg/mL).

In the case of `CC[C@H](C)[C@H](NC(=O)[C@H](Cc1cnc[nH]1)NC(=O)[C@H](CCCCN)NC(=O)[C@H](CC(C)C)NC(=O)[C@H](CC(C)C)NC(=O)[C@H](Cc1cnc[nH]1)NC(=O)[C@H](CCSC)NC(=O)[C@H](Cc1c[nH]c2ccccc12)NC(=O)[C@H](CCCCN)NC(=O)CN)C(=O)N[C@@H](CC(C)C)C(=O)N[C@@H](CCCCN)C(N)=O` [GKWMHLLKHILK], the MIC in the experiment with Bacillus subtilis 168 is 1.1 µM (≈ 1.65 µg/mL); against Escherichia coli B, 2.2 µM (≈ 3.31 µg/mL); against Pseudomonas aeruginosa, 46.7 µM (≈ 70.2 µg/mL); against Staphylococcus aureus it was 12.5 µM (≈ 18.8 µg/mL).

Consider `CC[C@H](C)[C@H](NC(=O)[C@H](CCCN=C(N)N)NC(=O)[C@H](CCCN=C(N)N)NC(=O)[C@@H]1CCCN1C(=O)[C@@H]1CCCN1C(=O)[C@H](CCCN=C(N)N)NC(=O)[C@@H]1CCCN1C(=O)[C@H](CCCN=C(N)N)NC(=O)[C@@H]1CCCN1C(=O)[C@H](CC(C)C)NC(=O)[C@H](CCCN=C(N)N)NC(=O)[C@H](Cc1cnc[nH]1)NC(=O)[C@H](CCCCN)NC(=O)[C@H](CCCCN)NC(=O)[C@H](CC(=O)O)NC(=O)[C@@H](N)C(C)C)C(=O)N[C@@H](Cc1ccc(O)cc1)C(=O)N[C@@H](CC(N)=O)C(=O)N[C@@H](CCCN=C(N)N)C(N)=O` [VDKKHRLPRPRPPRRIYNR], for which the MIC in the experiment with Escherichia coli JW0013 was determined as 0.978 µM (≈ 2.4 µg/mL).

`CC[C@H](C)[C@H](NC(=O)[C@H](CCCN=C(N)N)NC(=O)[C@H](CCCN=C(N)N)NC(=O)[C@@H]1CCCN1C(=O)[C@@H]1CCCN1C(=O)[C@H](CCCN=C(N)N)NC(=O)[C@@H]1CCCN1C(=O)[C@H](CCCN=C(N)N)NC(=O)[C@@H]1CCCN1C(=O)[C@H](CC(C)C)NC(=O)[C@H](Cc1ccc(O)cc1)NC(=O)[C@@H]1CCCN1C(=O)[C@H](Cc1cnc[nH]1)NC(=O)[C@H](CCCCN)NC(=O)[C@H](CC(=O)O)NC(=O)[C@@H](N)C(C)C)C(=O)N[C@@H](Cc1ccc(O)cc1)C(=O)N[C@@H](CC(N)=O)C(=O)N[C@@H](CCCN=C(N)N)C(N)=O` [VDKHPYLPRPRPPRRIYNR] had a minimum inhibitory concentration (MIC) in the experiment on Escherichia coli JW0013 of 1.97 µM (≈ 4.8 µg/mL).

With `CC[C@H](C)[C@H](NC(=O)[C@H](CCCN=C(N)N)NC(=O)[C@H](CCCN=C(N)N)NC(=O)[C@@H]1CCCN1C(=O)[C@@H]1CCCN1C(=O)[C@H](CCCN=C(N)N)NC(=O)[C@@H]1CCCN1C(=O)[C@H](CCCN=C(N)N)NC(=O)[C@@H]1CCCN1C(=O)[C@H](CCCN=C(N)N)NC(=O)[C@H](Cc1ccc(O)cc1)NC(=O)[C@H](Cc1cnc[nH]1)NC(=O)[C@H](CCCN=C(N)N)NC(=O)[C@H](CCCCN)NC(=O)[C@H](CC(=O)O)NC(=O)[C@@H](N)C(C)C)C(=O)N[C@@H](Cc1ccc(O)cc1)C(=O)N[C@@H](CC(N)=O)C(=O)N[C@@H](CCCN=C(N)N)C(N)=O` [VDKRHYRPRPRPPRRIYNR], the MIC against Escherichia coli JW0013 was determined as 0.316 µM (≈ 0.8 µg/mL).

As for `CC[C@H](C)[C@H](NC(=O)[C@H](CCCN=C(N)N)NC(=O)[C@H](CCCN=C(N)N)NC(=O)[C@@H]1CCCN1C(=O)[C@@H]1CCCN1C(=O)[C@H](CCCN=C(N)N)NC(=O)[C@H](Cc1ccc(O)cc1)NC(=O)[C@H](CCCN=C(N)N)NC(=O)[C@@H]1CCCN1C(=O)[C@H](CC(C)C)NC(=O)[C@H](Cc1ccc(O)cc1)NC(=O)[C@@H]1CCCN1C(=O)[C@@H]1CCCN1C(=O)[C@H](CCCCN)NC(=O)[C@H](CC(=O)O)NC(=O)[C@@H](N)C(C)C)C(=O)N[C@@H](Cc1ccc(O)cc1)C(=O)N[C@@H](CC(N)=O)C(=O)N[C@@H](CCCN=C(N)N)C(N)=O` [VDKPPYLPRYRPPRRIYNR], the MIC in the experiment on Escherichia coli JW0013 amounted to 1.95 µM (≈ 4.8 µg/mL).

On to `CC(C)C[C@H](NC(=O)[C@H](CCCN=C(N)N)NC(=O)[C@@H]1CCCN1C(=O)[C@@H]1CCCN1C(=O)[C@H](CCCN=C(N)N)NC(=O)[C@@H]1CCCN1C(=O)[C@H](CCCN=C(N)N)NC(=O)[C@H](CCCN=C(N)N)NC(=O)[C@H](CCCN=C(N)N)NC(=O)[C@@H](N)CCCN=C(N)N)C(=O)N1CCC[C@H]1C(=O)N[C@@H](CCCN=C(N)N)C(=O)N1CCC[C@H]1C(=O)N[C@@H](CCCN=C(N)N)C(=O)N1CCC[C@H]1C(=O)N[C@@H](CCCN=C(N)N)C(=O)O` [RRRRPRPPRLPRPRPR], for which the MIC in the experiment with Escherichia coli JW0013 was 0.3 µM (≈ 0.636 µg/mL).

Consider `CC[C@H](C)[C@H](NC(=O)[C@H](CCCN=C(N)N)NC(=O)[C@H](CCCN=C(N)N)NC(=O)[C@@H]1CCCN1C(=O)[C@@H]1CCCN1C(=O)[C@H](CCCN=C(N)N)NC(=O)[C@@H]1CCCN1C(=O)[C@H](Cc1cnc[nH]1)NC(=O)[C@@H]1CCCN1C(=O)[C@H](CC(C)C)NC(=O)[C@H](Cc1ccc(O)cc1)NC(=O)[C@@H]1CCCN1C(=O)[C@@H]1CCCN1C(=O)[C@H](CCCCN)NC(=O)[C@H](CC(=O)O)NC(=O)[C@@H](N)C(C)C)C(=O)N[C@@H](Cc1ccc(O)cc1)C(=O)N[C@@H](CC(N)=O)C(=O)N[C@@H](CCCN=C(N)N)C(N)=O` [VDKPPYLPHPRPPRRIYNR], for which the MIC with Escherichia coli JW0013 stood at 2.02 µM (≈ 4.8 µg/mL).

Compound `CC[C@H](C)[C@H](NC(=O)[C@H](CCCN=C(N)N)NC(=O)[C@H](CCCN=C(N)N)NC(=O)[C@@H]1CCCN1C(=O)[C@@H]1CCCN1C(=O)[C@H](CCCN=C(N)N)NC(=O)[C@@H]1CCCN1C(=O)[C@H](CCCN=C(N)N)NC(=O)[C@@H]1CCCN1C(=O)[C@H](CC(C)C)NC(=O)[C@H](Cc1ccc(O)cc1)NC(=O)[C@@H]1CCCN1C(=O)[C@H](C)NC(=O)[C@H](CCCCN)NC(=O)[C@H](CC(=O)O)NC(=O)[C@@H](N)C(C)C)C(=O)N[C@@H](Cc1ccc(O)cc1)C(=O)N[C@@H](CC(N)=O)C(=O)N[C@@H](CCCN=C(N)N)C(N)=O` [VDKAPYLPRPRPPRRIYNR] yielded a minimal inhibitory concentration (MIC) against Escherichia coli JW0013 of 1.4 µM (≈ 3.3 µg/mL).

Regarding `CC[C@H](C)[C@H](NC(=O)[C@H](CCCN=C(N)N)NC(=O)[C@H](CCCN=C(N)N)NC(=O)[C@@H]1CCCN1C(=O)[C@@H]1CCCN1C(=O)[C@H](CCCN=C(N)N)NC(=O)[C@@H]1CCCN1C(=O)[C@H](CCCN=C(N)N)NC(=O)[C@@H]1CCCN1C(=O)[C@H](CC(C)C)NC(=O)[C@H](CCCN=C(N)N)NC(=O)[C@@H]1CCCN1C(=O)[C@H](CCCN=C(N)N)NC(=O)[C@H](CCCCN)NC(=O)[C@H](CC(=O)O)NC(=O)[C@@H](N)C(C)C)C(=O)N[C@@H](Cc1ccc(O)cc1)C(=O)N[C@@H](CC(N)=O)C(=O)N[C@@H](CCCN=C(N)N)C(N)=O` [VDKRPRLPRPRPPRRIYNR], the minimum inhibitory concentration (MIC) against Escherichia coli JW0013 was 0.532 µM (≈ 1.3 µg/mL).

Take `CC[C@H](C)[C@H](NC(=O)[C@H](CCCCN)NC(=O)[C@H](CCCCN)NC(=O)[C@H](Cc1c[nH]c2ccccc12)NC(=O)[C@H](CC(N)=O)NC(=O)[C@@H](N)C(C)C)C(=O)N[C@@H](CC(C)C)C(=O)N[C@@H](CCCCN)C(=O)N[C@@H](CCCCN)C(=O)N[C@H](C(=O)N[C@H](C(=O)N[C@@H](CCCCN)C(=O)N[C@H](C(=O)N[C@H](C(=O)N[C@@H](CCCCN)C(N)=O)C(C)C)C(C)C)[C@@H](C)CC)[C@@H](C)CC` [VNWKKILKKIIKVVK]: the MIC in the experiment on Bacillus subtilis 168 came to 0.7 µM (≈ 1.29 µg/mL); with Escherichia coli B, 0.7 µM (≈ 1.29 µg/mL); with Pseudomonas aeruginosa, 26.1 µM (≈ 47.9 µg/mL); in the experiment with Staphylococcus aureus, 9.6 µM (≈ 17.6 µg/mL).

Regarding `CC[C@H](C)[C@H](NC(=O)[C@H](CCCN=C(N)N)NC(=O)[C@H](CCCN=C(N)N)NC(=O)[C@@H]1CCCN1C(=O)[C@@H]1CCCN1C(=O)[C@H](CCCN=C(N)N)NC(=O)[C@H](CCCCN)NC(=O)[C@H](CCCN=C(N)N)NC(=O)[C@@H]1CCCN1C(=O)[C@H](CC(C)C)NC(=O)[C@H](CCCN=C(N)N)NC(=O)[C@@H]1CCCN1C(=O)[C@H](CCCN=C(N)N)NC(=O)[C@H](CCCCN)NC(=O)[C@H](CC(=O)O)NC(=O)[C@@H](N)C(C)C)C(=O)N[C@@H](Cc1ccc(O)cc1)C(=O)N[C@@H](CC(N)=O)C(=O)N[C@@H](CCCN=C(N)N)C(N)=O` [VDKRPRLPRKRPPRRIYNR], in the experiment on Escherichia coli JW0013, the minimum inhibitory concentration (MIC) came out at 0.647 µM (≈ 1.6 µg/mL).

In the experiment with Escherichia coli JW0013, `CC[C@H](C)[C@H](NC(=O)[C@H](CCCN=C(N)N)NC(=O)[C@H](CCCN=C(N)N)NC(=O)[C@@H]1CCCN1C(=O)[C@@H]1CCCN1C(=O)[C@H](CCCN=C(N)N)NC(=O)[C@@H]1CCCN1C(=O)[C@H](CCCN=C(N)N)NC(=O)[C@@H]1CCCN1C(=O)[C@H](CC(C)C)NC(=O)[C@H](Cc1ccc(O)cc1)NC(=O)[C@@H]1CCCN1C(=O)[C@@H]1CCCN1C(=O)[C@H](CCCCN)NC(=O)[C@H](CC(=O)O)NC(=O)[C@H](C)N)C(=O)N[C@@H](Cc1ccc(O)cc1)C(=O)N[C@@H](CC(N)=O)C(=O)N[C@@H](CCCN=C(N)N)C(N)=O` [ADKPPYLPRPRPPRRIYNR] came in with a minimal inhibitory concentration (MIC) of 2.03 µM (≈ 4.8 µg/mL).

For the origin of these results see DBAASP.
